In PubChem BioAssay AID624438 (The Scripps Research Institute Molecular Screening Center, 2012) one finds IC50 data, which are given here for 1 compound.

Calls of active or inactive are those of the source.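 Rule for the calls: active = IC50 below 50 µM against the phosphatase PP2C-alpha; inactive = IC50 at or above 50 µM.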

In this experiment the target is Protein phosphatase 1A (Homo sapiens) (UniProt P35813). Briefly: inhibition of PP2C-alpha OMFP dephosphorylation – biochemical, fluorescence, OMFP substrate, round 5, selectivity assay for PP5 inhibitor project, late-stage follow-up (AID 624438). Particulars: purified MBP-PP2C-alpha.
Chain of Protein phosphatase 1A (Homo sapiens) (P35813 whole entry, looked up): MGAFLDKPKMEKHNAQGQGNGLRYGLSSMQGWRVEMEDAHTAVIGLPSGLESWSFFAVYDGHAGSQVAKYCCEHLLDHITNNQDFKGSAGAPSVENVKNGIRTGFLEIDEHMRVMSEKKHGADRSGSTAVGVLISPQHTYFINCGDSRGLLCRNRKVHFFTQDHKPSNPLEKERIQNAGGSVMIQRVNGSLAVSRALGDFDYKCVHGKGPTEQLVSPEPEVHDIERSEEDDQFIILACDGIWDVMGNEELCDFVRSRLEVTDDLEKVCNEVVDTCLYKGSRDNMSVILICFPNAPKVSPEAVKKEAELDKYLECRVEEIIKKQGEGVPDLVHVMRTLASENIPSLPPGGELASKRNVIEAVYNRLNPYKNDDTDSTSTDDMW

`CC(C)Oc1ccccc1-c1n[nH]nc1C(=O)O`: the IC50 (usually the point on the concentration scale where inhibition reaches its midpoint) is > 1000 µM (inactive).
